# Source: article PMC7849180 (Frontiers in Pharmacology, 2020)
# Tests used:
# [1] = Plasma pharmacokinetics, single ascending dose (SAD); assay type: in vivo, human; settings: for Cmax, geometric mean (CV%) / Tmax, median (min–max): fasting
# Method: In SAD part, volunteers were designed into eight SAD cohorts (25, 50, 100, 150, 200, 250, 300 and 400 mg). Among these cohorts, 25 mg was bisected by the 50 mg specification under good manufacturing practices (GMP) condition and provided the certificate of analysis. […] Jaktinib or placebo was administrated after an overnight fast.
# For MAD cohorts, blood samples were collected at 0, 0.25, 0.5, 1, 1.5, 2, 3, 4, 5, 6, 8 and 12 h on day 1; 0 h on day 2, 3, 4, 6 and 7; 0, 0.25, 0.5, 1, 1.5, 2, 3, 4, 5, 6, 8, 12, 24, 36 and 48 h on day 10. In food effect cohort, blood samples were collected at 0, 0.25, 0.5, 1, 1.5, 2, 3, 4, 5, 6, 8, 12, 24, 36, 48, 72, 96 and 120 h in period one of group A; 0, 0.25, 0.5, 1, 1.5, 2, 3, 4, 5, 6, 8, 12, 24, 36 and 48 h in period two of group A and the two periods of group B. Blood samples were centrifuged at 3,000 rpm for 10 min at 2–8 °C and stored at -80 °C until liquid chromatography-mass spectrophotometry (LC-MS/MS) analysis. Urine and feces samples were collected in period one of group A of food effect cohort with the intervals 0, 0–6, 6–12, 12–24, 24–48, 48–72, 72–96, 96–120 and 0–120 h, respectively. […]
# [2] = system: primary cells harboring the JAK2V617F mutation in patients with polycythemia vera; test: Colony forming of erythroid hematopoietic cells of polycythemia vera patients; assay type: cell-based, human; settings: 1 μM
# Excerpt: Suzhou Zelgen Biopharmaceuticals Co., Ltd. Jaktinib Hydrochloride Tablets Chemical Drug Class 1 New Drug and ZG0178. However, the inhibitory effect on the activity of Ba/F3-EpoR cell line […]
# respectively. Obviously, this selective inhibition is associated with the aberrant expression of JAK2 in Ba/F3-EpoR-JAK2V617F mutant cells, and the degree of ZG0163 inhibition on JAK-STAT signaling pathway in this cell line. […]
# cells, and the effects of ZG0163 was similar to those of positive control compounds, […]
# In Vitro Inhibitory Effect of ZG0128 on Cell Lines Transfected with Oncogenes and Primary Blood Cells in Patients with Polycythemia Vera
# In vitro cell culture assay was used to determine whether compound ZG0128 […]
# cell line harboring a JAK2V617F mutation, and 8 HCD-57 cell lines stably transfected with oncogenic mutations JAK2V617F, MPLW515L, KITD816V, NPM-ALK, FLT3-ITD, FLT3D835H, FLT3D835Y and KRasG12V, respectively. In addition, study the inhibitory effects of compound ZG0128 on the growth of hematopoietic progenitor cells in patients with polycythemia vera.
# 9 cell lines were similar to those of positive control drug ZG0192. At the sub-micromolar concentration, both compounds ZG0128 and ZG0192 were able to […]
# the growth of HCD-57 cells transfected with oncogenic mutations JAK2V617F, […]
# spectrum inhibitory effect on tyrosine kinases. […]
# [3] = system: CYP1A2; assay type: in vitro ADME, human; settings: 0.10, 1.00, 10.0 μM
# Excerpt: Suzhou Zelgen Biopharmaceuticals Co., Ltd. Jaktinib Hydrochloride Tablets Chemical Drug Class 1 New Drug […]
# metabolite formed in human liver microsomes was the morpholine ring-opening metabolite M3. The enzyme phenotype involved in the oxidation of ZG0128 to form M3 was identified with reaction phenotyping assay using chemical inhibition and human recombinant CYP450 enzymes.
# Using UPLC/Q-TOF MS, the amount of ZG0128 and primary alcohol metabolite formed by morpholine ring-opening (M3) in human liver microsomes and different incubation systems for human recombinant enzymes, including CYP1A2, CYP2A6, […]
# inhibitor 1-ABT, CYP3A inhibitor ketoconazole, and CYP2C8 inhibitor quercetin can […]
# for human liver microsomes and inhibit the formation of M3. […]
# primary enzyme that produced M3 while CYP1A2, 2D6 and 2C9 were also partly involved. Results from the reaction phenotyping assay using chemical inhibition and […]
# microsomes was a morpholine ring-opening metabolite catalyzed mainly by CYP3A4 […]
# Inhibition and Induction of ZG0128 on CYP-P450s
# The inhibition and induction potentials of ZG0128 on CYP-P450s were evaluated using mixed human liver microsomes and human primary hepatocytes as the in vitro […]
# hydroxylation), and CYP3A4 (testosterone 6β-hydroxylation), with an IC50 greater than […]. […]
# [4] = 25–400 mg, linear mixed effects model
compound,measurement,setting,value
Jaktinib,slope (90% CI) for ln AUC0-∞ vs dose,[1]; [4],1.15 (0.96–1.34)
same,slope (90% CI) for ln Cmax vs dose,[1]; [4],1.00 (0.86–1.15)
same,"Cmax, geometric mean (CV%)",[1]; single 25 mg dose,34.50 (51.6) ng/ml
same,"Tmax, median (min–max)",[1]; single 25 mg dose,2.00 (1.00–4.00) h
same,"Cmax, geometric mean (CV%)",[1]; single 50 mg dose,77.56 (72.8) ng/ml
same,"Tmax, median (min–max)",[1]; single 50 mg dose,3.00 (0.50–5.00) h
same,"Cmax, geometric mean (CV%)",[1]; single 100 mg dose,183.48 (33.3) ng/ml
same,"Tmax, median (min–max)",[1]; single 100 mg dose,1.25 (0.50–3.00) h
same,"Cmax, geometric mean (CV%)",[1]; single 150 mg dose,297.18 (36.6) ng/ml
same,"Tmax, median (min–max)",[1]; single 150 mg dose,2.50 (1.50–4.00) h
same,"Cmax, geometric mean (CV%)",[1]; single 200 mg dose,354.52 (44.6) ng/ml
same,"Tmax, median (min–max)",[1]; single 200 mg dose,2.50 (1.00–3.00) h
same,"Cmax, geometric mean (CV%)",[1]; single 250 mg dose,404.20 (36.9) ng/ml
same,"Tmax, median (min–max)",[1]; single 250 mg dose,2.00 (1.00–4.00) h
same,"Cmax, geometric mean (CV%)",[1]; single 300 mg dose,510.54 (35.4) ng/ml
same,"Tmax, median (min–max)",[1]; single 300 mg dose,3.00 (0.50–5.00) h
same,"Cmax, geometric mean (CV%)",[1]; single 400 mg dose,579.35 (42.6) ng/ml
same,"Tmax, median (min–max)",[1]; single 400 mg dose,3.50 (2.00–5.00) h
same,"CL/F, range across cohorts",[1]; single dose 25–400 mg,76.212 to 150.190 L/h
same,"Vz/F, range across cohorts",[1]; single dose 25–400 mg,533.561 to 1033.554 L
same,"median Tmax, range across cohorts",[1]; single dose 25–400 mg jaktinib,1.25 to 3.5 h
same,"t1/2, range across cohorts",[1]; single dose 25–400 mg jaktinib,2.952 to 9.040 h
"Cl.Cl.O.[2H]C1([2H])COCC([2H])([2H])N1c1ccc(Nc2nccc(-c3ccc(C(=O)NCC#N)cc3)n2)cc1 [ZG0128, Jaktinib Dihydrochloride Monohydrate]",colony forming of erythroid hematopoietic cells,[2],almost completely inhibited
same,in vitro induction,[3],no in vitro induction
